Measurements reported in PMC12675575, “A BRET biosensor for measuring uncompetitive engagement of PRMT5 complexes in cells” (Nature Communications, 2025).
Read-outs that look alike come from different tables or passages of the source.

Biological target: NanoLuc-PRMT5 co-expressed with WDR77 (Homo sapiens, UniProt O14744)
Test: Live-cell NanoBRET target engagement with BRET probe CBH-002 in HEK293 cells expressing NanoLuc-PRMT5 and unlabeled WDR77
Type: cell-based
Design: host or cells: HEK293
Conditions: HEK293, Figure S2H, log([compound]), read-out: normalised BRET, Bio rep 1-3; for remaining activity at 0.3715 µM: uM -0.43; for remaining activity at 0.04074 µM: uM -1.39; for remaining activity at 0.0138 µM: uM -1.86; for remaining activity at 0.004571 µM: uM -2.34; for remaining activity at 0.001514 µM: uM -2.82; for remaining activity at 0.0005129 µM: uM -3.29; for remaining activity at 0.0001698 µM: uM -3.77
Protocol: HEK293 cells (ATCC) were cultured in DMEM (Thermo Fisher) + 10% (v/v) FBS (Seredigm), and HCT116 cells (Horizon Discovery, #PAR-034 and #R02-033) were cultured in McCoy’s 5A (Thermo Fisher) + 10% FBS, with incubation in a humidified, 37 °C/5% CO2 incubator. Cells were split 1–3 days prior to performing experiments and used at roughly 80% confluency. […] Cells were transfected according to the manufacturer’s protocol using FuGENE HD (Promega). NanoLuc fusion DNA was diluted into Transfection Carrier DNA (Promega) in Opti-MEM at a ratio of 1:9 (mass/mass), and FuGENE HD was added at a ratio of 1:3 (μg DNA:μL lipid). […] Formed complexes were combined with cells resuspended to a density of 2 × 10^5 cells/mL in Opti-MEM + 1% FBS at a ratio of 1:20 (vol:vol). […] Cells were seeded at a density of 2 × 10^5 cells/mL in Opti-MEM + 1% FBS in 100 μL (96-well). The BRET probe CBH-002 was prepared first as a 100× stock in 100% DMSO (Sigma) and then diluted to a 20× stock in NanoBRET Tracer Dilution buffer (Promega). Test compounds were prepared as 1000× stocks in 100% DMSO and diluted to 10× stocks in Opti-MEM to prepare working stocks. […] NanoBRET Complete 3x Substrate was prepared by combining Nano-Glo Substrate and Extracellular NanoLuc Inhibitor in Opti-MEM, according to the manufacturer’s protocol (Promega).
BRET ratio values were calculated by dividing the acceptor by the donor signal, and raw BRET was converted to milli-BRET (mBRET) units (mBu) by multiplying by 1000.
EC50 values were obtained by fitting the BRET probe and compound affinity curves to a sigmoidal four-parameter fit model in Graphpad Prism:1 Y=Ymin+Ymax−Ymin/1+10^LogEC50−Xh where h is the Hill Slope.
When normalized BRET was used, mBRET values were normalized using2 NormalizedBRET%=(Y−BRETmin)/BRETmax−BRETmin where y = mBRET in the presence of test compound and BRET probe, BRETmin = mBRET at the highest concentration (saturating) of test compound and BRET probe, and BRETmax = mBRET in the presence of vehicle (DMSO) and BRET probe.
Normalized concentration-response curves showing full competition were fit using a 2-parameter model:3 Y=100/1+10^LogEC50−Xh
In situations where only partial competition was observed, the normalized concentration-response curves were fit using Eq. 1 and where Ymin was constrained to >0.

Chain of NanoLuc-PRMT5 co-expressed with WDR77 (O14744 whole entry): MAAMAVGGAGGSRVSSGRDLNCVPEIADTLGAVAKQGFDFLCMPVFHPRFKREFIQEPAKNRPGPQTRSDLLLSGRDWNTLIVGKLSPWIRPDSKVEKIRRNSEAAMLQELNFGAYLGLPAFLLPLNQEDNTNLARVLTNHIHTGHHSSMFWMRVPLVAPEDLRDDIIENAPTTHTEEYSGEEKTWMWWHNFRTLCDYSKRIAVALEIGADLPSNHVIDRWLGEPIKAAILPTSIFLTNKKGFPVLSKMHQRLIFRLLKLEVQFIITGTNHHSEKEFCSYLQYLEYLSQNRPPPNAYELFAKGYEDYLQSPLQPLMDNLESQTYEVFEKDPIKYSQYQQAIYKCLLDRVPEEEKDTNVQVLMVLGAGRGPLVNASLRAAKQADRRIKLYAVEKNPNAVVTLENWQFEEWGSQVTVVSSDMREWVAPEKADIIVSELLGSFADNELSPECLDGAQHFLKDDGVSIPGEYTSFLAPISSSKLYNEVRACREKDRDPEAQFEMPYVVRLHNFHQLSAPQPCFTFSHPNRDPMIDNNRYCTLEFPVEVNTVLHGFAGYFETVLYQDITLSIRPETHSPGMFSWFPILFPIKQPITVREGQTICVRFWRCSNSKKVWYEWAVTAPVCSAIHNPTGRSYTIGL
Chain of NanoLuc-PRMT5 co-expressed with WDR77 (Q9BQA1 whole entry partner): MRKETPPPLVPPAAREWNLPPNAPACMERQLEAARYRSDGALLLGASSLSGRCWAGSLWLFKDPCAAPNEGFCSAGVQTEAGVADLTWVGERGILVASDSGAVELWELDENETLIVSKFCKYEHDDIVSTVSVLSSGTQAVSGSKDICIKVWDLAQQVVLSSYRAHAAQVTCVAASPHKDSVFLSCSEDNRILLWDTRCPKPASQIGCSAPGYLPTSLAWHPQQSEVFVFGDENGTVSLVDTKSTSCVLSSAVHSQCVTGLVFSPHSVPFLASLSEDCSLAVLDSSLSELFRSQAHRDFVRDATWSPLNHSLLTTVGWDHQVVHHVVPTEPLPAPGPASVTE

| remaining activity at […] (uM 0.0458) | remaining activity at […] (uM 0.52) | remaining activity at 0.3715 µM | remaining activity at […] (uM -0.91) | remaining activity at 0.04074 µM | remaining activity at 0.0138 µM | remaining activity at 0.004571 µM | remaining activity at 0.001514 µM | remaining activity at 0.0005129 µM | remaining activity at 0.0001698 µM | Compound |
| --- | --- | --- | --- | --- | --- | --- | --- | --- | --- | --- |
| 100% | 99% | 102% | 102% | 101% | 101% | 99.8% | 97.9% | 97.6% | 97.4% | CNCCN1CCC(c2cc(CN(C)C(=O)c3cccc(Oc4ccccc4)c3)ccn2)CC1 [TP064, reference compound] |
| 103% | 102% | 102% | 103% | 103% | 104% | 101% | 102% | 103% | 98% | CC(C)Oc1ccc(-c2c[nH]cc2CN(C)CCN)cc1 [MS023, reference compound] |
